Legend:
Type in all cases: cell-based, Homo sapiens
claudin-5 = assay: Western blot of claudin-5 expression in hCMEC/D3 cells; conditions: hCMEC/D3 cells; for GDNF-induced claudin-5 expression: 200 pg/ml GDNF, 3 μM SPP-86, 5 μM PP2, 3 μM LY294002, 2 μM U0126, 5 μM SP600125, 2 μM SB203580; for GDNF-induced claudin-5 expression / US-CM-induced claudin-5 expression: anti-GDNF antibody 0.25, 0.5, 1.0 μg/ml; for US-CM-induced claudin-5 expression: 3 μM SPP-86, 5 μM PP2, 3 μM LY294002, 2 μM U0126
Method: (§1) Whole-cell and tissue lysates, nucleoprotein, and cytoplasmic protein were prepared using RIPA Lysis Buffer (Beyotime, Shanghai, China) as the described method ([Wu et al., 2021]). Proteins were separated through sodium dodecyl sulfate–polyacrylamide gel electrophoresis and transferred onto nitrocellulose or polyvinylidene difluoride membranes. The membranes were blocked with 5% skim milk and incubated with corresponding primary antibodies at 4°C overnight. After being washed with Tris-buffered saline Tween buffer, the membranes were incubated with secondary antibodies (Cell Signaling Technology, MA, USA) at 1:3000 dilution: Anti-mouse IgG, HRP-linked Antibody (#7076), Anti-rabbit IgG, HRP-linked Antibody (#7074). Protein levels were visualized using a highly sensitive ECL western blotting substrate and a gel imaging system (Tanon Science & Technology, Shanghai, China).
(§2) CM of U251 cells (U-CM), SH-SY5Y cells (S-CM), or co-culture of U251 and SH-SY5Y cells (US-CM) was prepared. U251 cells were seeded at the top of the insert membrane and suspended on 6-well plates seeded with differentiated SH-SY5Y cells to co-culture U251 cells with SH-SY5Y cells. The medium was collected every 24 hr. The CMs were subsequently used for hCMEC/D3 cell culture after filtrating with 0.2 μm filters for 144 hr. The levels of GDNF, bFGF, IGF-1, and TGF-β in CMs were measured using corresponding ELISA kits according to the manufacturers’ instructions.
(§3) Exogenous and endogenous GDNF in the medium was neutralized with anti-GDNF antibody (#AF-212-NA, R&D system, Minneapolis, MN, USA). 0.25, 0.5, and 1.0 μg/ml anti-GDNF antibody was added into the US-CM or medium containing 200 pg/ml GDNF, and then the medium was preincubated at 4°C for 1 hr. The hCMEC/D3 cells were incubated with 200 pg/ml GDNF or US-CM containing anti-GDNF antibody or not for 6 days, and then cell lysate was collected for western blot. The medium was replaced every 24 hr.
(§4) Here, hCMEC/D3 cells were plated in the plates or culture dishes at 6 × 10^4 cells/cm^2 and transfected with 10 nM of negative control or human FOXO1, ETS1, and CDH5 siRNA (Tsingke Biotechnology, Beijing, China) for 12 hr using Lipofectamine 3000 (Invitrogen, Carlsbad, CA, USA) reagent according to the manufacturer’s instructions. Cells were then incubated with a medium containing GDNF for 72 hr.
(§5) The plasmids encoding FOXO1 (EX-Z7404-M02) were constructed by GeneCopoeia (Rockville, MD, USA). The hCMEC/D3 cells were plated in plates or dishes at 6 × 10^4 cells/cm^2. They were subsequently transfected with 1 µg of negative control or plasmids encoding FOXO1 6 hr using Lipofectamine 3000 reagent according to the manufacturer’s instructions. Transfected cells were then incubated with the medium containing GDNF for 72 hr.

VE-cadherin = assay: Western blot of VE-cadherin expression in hCMEC/D3 cells; conditions: hCMEC/D3 cells, anti-GDNF antibody 0.25, 0.5, 1.0 μg/ml; for GDNF-induced VE-cadherin expression: 200 pg/ml GDNF, 3 μM SPP-86, 5 μM PP2, 3 μM LY294002, 2 μM U0126, 5 μM SP600125, 2 μM SB203580; for US-CM-induced VE-cadherin expression: 3 μM SPP-86, 5 μM PP2, 3 μM LY294002, 2 μM U0126
Method: as §1, §2, §3, §4

p-AKT/AKT = assay: Western blot of p-AKT/AKT in hCMEC/D3 cells; conditions: hCMEC/D3 cells, US-CM; 3 μM LY294002 or anti-GDNF antibody
Method: as §1, §3

FOXO1 = assay: Western blot of FOXO1 (p-FOXO1/FOXO1, total, cytoplasmic, nuclear) in hCMEC/D3 cells; conditions: hCMEC/D3 cells; LY294002 or U0126
Method: as §1, §4, §5

ETS1 = assay: Western blot of total and nuclear ETS1 in hCMEC/D3 cells; conditions: hCMEC/D3 cells, 200 pg/ml GDNF; LY294002 or U0126
Method: as §1, §4

p-ERK/ERK = assay: Western blot of p-ERK/ERK in hCMEC/D3 cells; conditions: hCMEC/D3 cells, US-CM; 2 μM U0126 or anti-GDNF antibody
Method: as §1, §3

SMILES	GDNF-induced claudin-5 expression (claudin-5)	US-CM-induced claudin-5 expression (claudin-5)	upregulation of claudin-5 expression induced by FOXO1 siRNA and GDNF (claudin-5; LY294002)	GDNF-induced VE-cadherin expression (VE-cadherin)	US-CM-induced VE-cadherin expression (VE-cadherin)	US-CM-induced p-AKT (p-AKT/AKT)	GDNF-induced alterations in total p-FOXO1, cytoplasmic p-FOXO1, cytoplasmic FOXO1, and nuclear FOXO1 (FOXO1)	GDNF-induced nuclear ETS1 expression (ETS1)	GDNF-induced total ETS1 expression (ETS1)	US-CM-induced p-ERK (p-ERK/ERK)
O=c1cc(N2CCOCC2)oc2c(-c3ccccc3)cccc12 [LY294002, reference compound]	significantly suppressed	markedly reversed	reversed	significantly suppressed	markedly reversed	markedly reversed	significantly reversed	markedly attenuated	markedly attenuated	–
N#CC(=C(/N)Sc1ccccc1N)/C(C#N)=C(/N)Sc1ccccc1N [U0126, reference compound]	significantly suppressed	markedly reversed	–	significantly suppressed	markedly reversed	–	–	markedly attenuated	markedly attenuated	markedly reversed

From article PMC11524583, “Neurons enhance blood–brain barrier function via upregulating claudin-5 and VE-cadherin expression due to glial cell line-derived neurotrophic factor secretion” (eLife, 2024)
